Data as given in patent US20230136569A1, “USE OF NMN TO REDUCE IMMUNODEPRESSION AND IMMUNOSENESCENCE” (NUVAMID SA, priority 2020, published 2023).

Columns and labels:
Assay type in all cases: in vivo
[1] = Weight gain and water consumption of mice given the compounds in drinking water; settings: old mice (15 months), 500 mg/kg p.o. in drinking water; compared with non-treated mice of 15 months (FIG. 1A)
Description: (§1) The administering of β-NMN at 500 mg/kg, of α-NMN at 500 mg/kg and of the vehicle (water) was obtained via oral route (p.o) in the drinking water to young and old mice. The solutions were prepared by dissolving the powder of β-NMN or α-NMN in the vehicle (water). The solution was used at ambient temperature for no more than 2 days and was freshly prepared for each new administration. The mice were weighed each week to adapt the dose of the compound to be administered. Throughout the entire phase, a standard food diet and tap water were provided ad libitum. The study comprised 4 groups each having 6 mice: • Group 1: young mice (aged 10 weeks)+drinking water (vehicle) • Groupe 2: old mice (aged 15 months)+drinking water (vehicle) • Group 3: old mice (aged 15 months)+compound I-B (alpha-NMN) in the drinking water • Group 4: old mice (aged 15 months)+compound I-A (beta-NMN) in the drinking water The water consumption of the mice was assessed per cage every other day. The mice were weighed every week. The mice in Group 3 were sacrificed after 4 weeks for organ collection and characterisation of T cell function. The mice in Group 4 were sacrificed after 6 weeks for organ collection and characterisation of T cell function. On the day of sacrifice, the mice were anaesthetised with Vetoflurane (isoflurane) and blood samples were taken from the retroorbital sinus. […]

[2] = system: T cells present in the spleen; assay: Flow cytometry of CD4+ and CD8+ T cells in the spleen of old mice; settings: 500 mg/kg p.o.; for number of CD4+ effector T cells: α-NMN 4 weeks, β-NMN 6 weeks, compared with Group 3 (so in the source)
Description: The administering of β-NMN at 500 mg/kg, of α-NMN at 500 mg/kg and of the vehicle (water) was obtained via oral route (p.o) in the drinking water to young and old mice. The solutions were prepared by dissolving the powder of β-NMN or α-NMN in the vehicle (water). The study comprised 4 groups each having 6 mice: • Group 1: young mice (aged 10 weeks)+drinking water (vehicle) • Groupe 2: old mice (aged 15 months)+drinking water (vehicle) • Group 3: old mice (aged 15 months)+compound I-B (alpha-NMN) in the drinking water • Group 4: old mice (aged 15 months)+compound I-A (beta-NMN) in the drinking water The water consumption of the mice was assessed per cage every other day. The mice were weighed every week. The mice in Group 3 were sacrificed after 4 weeks for organ collection and characterisation of T cell function. The mice in Group 4 were sacrificed after 6 weeks for organ collection and characterisation of T cell function. On the day of sacrifice, the mice were anaesthetised with Vetoflurane (isoflurane) and blood samples were taken from the retroorbital sinus. The blood was incubated for 30 minutes at ambient temperature and then centrifuged at 1300 g for 10 minutes. After sacrificing of the mice, the spleen, thymus, and bone marrow of each animal were removed. The thymus was weighed and measured to evaluate involution thereof. For illustration purposes, photos of the thymus were taken on 5 animals per group. The thymus was divided into two parts: one part was treated with formol for histological examination. The second part was treated for characterisation of the immune cells. For characterisation of the cells, the thymus and spleen were crushed through a sieve of […] over a 50 mL tube with a syringe plunger. The bone marrow was rinsed with RPMI culture medium using a needle and syringe. The cell suspension was then centrifuged at 400 g for 5 minutes at 4° C. Lysis of the red blood cells was also performed before the cell count and use thereof for cytometry. The isolated cells of the spleen, thymus and bone marrow were marked with antibodies in accordance with the following tables to identify the proportion of effector and memory naive T and B cells. The following T cells of the spleen were also examined for characterisation as a function of the combination of proteins on the surface thereof: [table] Measured parameters: The results of flow cytometry are expressed in number or as a proportion of cells per organ. The weight of the thymus is expressed in grams.

[3] = system: old mice (aged 15 months); assay: Study of the effects on immunosenescence in old mice (overall conclusion); settings: old mice (15 months), 500 mg/kg p.o. in drinking water; concluding statement
Description: as §1, with “[…] The thymus was weighed” for “On the day of sacrifice, the mice were anaesthetised with Vetoflurane (isoflurane)”, “measured to evaluate involution thereof.” for “blood samples were taken from the retroorbital sinus.”

SMILES: NC(=O)c1ccc[n+]([C@@H]2O[C@H](COP(=O)([O-])O)[C@@H](O)[C@H]2O)c1 (stereo in doubt) [I-A, nicotinamide mononucleotide]
- weight gain of the treated mice [1]: did not significantly increase the weight
- number of CD4+ memory T cells in the spleen ([2]; 6 weeks, compared with the other groups (FIG. 7B)): increase in the memory T cells that is significant
- total number of CD4+ T cells in the spleen ([2]; 6 weeks, compared with the other groups of mice (FIG. 7A)): significantly increased
- number of CD4+ effector T cells [2]: increase in the number of CD4+ effector T cells
- signs of immunosenescence [3]: significant decrease in the signs of immunosenescence

SMILES: NC(=O)c1ccc[n+]([C@H]2O[C@H](COP(=O)([O-])O)[C@@H](O)[C@H]2O)c1 (stereo in doubt) [I-B, alpha nicotinamide mononucleotide]
- weight gain of the treated mice [1]: did not significantly increase the weight
- number of naive CD8+ T cells in the spleen ([2]; 4 weeks (FIG. 8A)): does not modify the number of naive CD8+ T cells
- levels of effector CD8+ T cells in the spleen ([2]; 4 weeks (FIG. 8B)): restoring of the levels of effector CD8+ T cells
- levels of memory CD8+ T cells in the spleen ([2]; 4 weeks (FIG. 8C as printed)): restoring of the levels
- levels of effector memory CD8+ T cells in the spleen ([2]; 4 weeks (FIG. 8D as printed)): restoring of the levels
- number of CD4+ effector T cells [2]: increase in the number of CD4+ effector T cells
- signs of immunosenescence [3]: significant decrease in the signs of immunosenescence
